According to the CheMixHub viscosity set:
Where “and” joins values, the source holds several entries; their conditions need not be identical. Equal values may be shown once.

Experiment: xn = mol fraction of the nth substance listed

CC(=O)CC(C)C + O=C1CCCCC1
298.15 K, 101 kPa
Conditions	viscosity [mPa·s]
x1 = 0.1218	1.58
x1 = 0.2067	1.371
x1 = 0.3146	1.163
x1 = 0.3931	1.037
x1 = 0.534	0.872
x1 = 0.6373	0.773
x1 = 0.7694	0.672
x1 = 0.888	0.599

CCCCCCCCCCCCCC[P+](CCCCCC)(CCCCCC)CCCCCC.c1nnc[n-]1 + O=C=O
Conditions	viscosity [mPa·s]
298.15 K, 100 kPa, x2 = 0.5	638

CCOCC + O=S(=O)(O)O
303.15 K, 101 kPa
Conditions	viscosity [mPa·s]
x1 = 0.00853	206.9
x1 = 0.01735	203
x2 = 0.05093	2.73
x2 = 0.07611	3.096
x2 = 0.1322	4.36
x2 = 0.1739	5.79
x2 = 0.2412	9.824
x2 = 0.3269	21.94
x2 = 0.3684	34.8
x2 = 0.3933	47.52
x2 = 0.4239	67.01
x2 = 0.4513	87.88
x2 = 0.5139	134.5
x2 = 0.5527	153.7
x2 = 0.5826	161.5
x2 = 0.636	160.6
x2 = 0.6604	156.7
x2 = 0.729	133.8
x2 = 0.8088	127.2
x2 = 0.8194	127.2
x2 = 0.891	138.2
x2 = 0.9089	145.2
x2 = 0.9478	169.2
x2 = 0.9658	187.2
x2 = 0.9684	189.7
x2 = 0.9737	196.3

O=C1CCCCC1 + OCCO
293.15 K, 101.33 kPa
Conditions	viscosity [mPa·s]
x2 = 0.1495	2.735
x2 = 0.2349	3.114
x2 = 0.293	3.566
x2 = 0.4345	4.882
x2 = 0.5042	5.922
x2 = 0.5172	6.179
x2 = 0.6565	9.855
x2 = 0.6965	11.02
x2 = 0.7152	11.2
x2 = 0.7398	12.4
x2 = 0.8522	17.59
x2 = 0.8845	18.73

CC(C)CC(C)(C)C + c1ccccc1
308.15 K, 101 kPa
Conditions	viscosity [mPa·s]
x1 = 0.0565	0.5093
x1 = 0.1062	0.4873
x1 = 0.1666	0.4676
x1 = 0.2409	0.4496
x1 = 0.3214	0.436
x1 = 0.412	0.4255
x1 = 0.5227	0.4188
x1 = 0.6688	0.4174
x1 = 0.8154	0.423

CCCCCC(=O)O + c1ccccc1
298.15 K, 101 kPa
Conditions	viscosity [mPa·s]
x1 = 0.03	0.626
x1 = 0.07	0.653
x1 = 0.11	0.684
x1 = 0.14	0.718
x1 = 0.31	0.908
x1 = 0.4	1.058
x1 = 0.5	1.284
x1 = 0.73	1.844

CCCCCCO + c1ccccc1
Conditions	viscosity [mPa·s]
293.15 K, 100 kPa, x2 = 0.0814	4.394
293.15 K, 100 kPa, x2 = 0.1623	3.612
293.15 K, 100 kPa, x2 = 0.2401	3.045
293.15 K, 100 kPa, x2 = 0.3536	2.371
293.15 K, 100 kPa, x2 = 0.4411	1.932
293.15 K, 100 kPa, x2 = 0.5516	1.507
293.15 K, 100 kPa, x2 = 0.6465	1.218
293.15 K, 100 kPa, x2 = 0.7441	0.979
293.15 K, 100 kPa, x2 = 0.8425	0.828
293.15 K, 100 kPa, x2 = 0.9324	0.728
298.15 K, 101 kPa, x1 = 0.04	0.615
298.15 K, 101 kPa, x1 = 0.078	0.633
298.15 K, 101 kPa, x1 = 0.12	0.663
298.15 K, 101 kPa, x1 = 0.16	0.709
298.15 K, 101 kPa, x1 = 0.34	0.98
298.15 K, 101 kPa, x1 = 0.43	1.195
298.15 K, 101 kPa, x1 = 0.53	1.505
298.15 K, 101 kPa, x1 = 0.75	2.444
303 K, 101.33 kPa, x1 = 0.1001	0.6115
303 K, 101.33 kPa, x1 = 0.2002	0.7018
303 K, 101.33 kPa, x1 = 0.3	0.8271
303 K, 101.33 kPa, x1 = 0.4002	0.9916
303 K, 101.33 kPa, x1 = 0.5004	1.198
303 K, 101.33 kPa, x1 = 0.6012	1.498
303 K, 101.33 kPa, x1 = 0.6985	1.883
303 K, 101.33 kPa, x1 = 0.8	2.387
303 K, 101.33 kPa, x1 = 0.8982	2.971
303.15 K, 100 kPa, x2 = 0.0814	3.292
303.15 K, 100 kPa, x2 = 0.1623	2.773
303.15 K, 100 kPa, x2 = 0.2401	2.333
303.15 K, 100 kPa, x2 = 0.3536	1.832
303.15 K, 100 kPa, x2 = 0.4411	1.514
303.15 K, 100 kPa, x2 = 0.5516	1.175
303.15 K, 100 kPa, x2 = 0.6465	0.951
303.15 K, 100 kPa, x2 = 0.7441	0.797
303.15 K, 100 kPa, x2 = 0.8425	0.684
303.15 K, 100 kPa, x2 = 0.9324	0.604
313 K, 101.33 kPa, x1 = 0.1001	0.5329
313 K, 101.33 kPa, x1 = 0.2002	0.6064
313 K, 101.33 kPa, x1 = 0.3	0.7078
313 K, 101.33 kPa, x1 = 0.4002	0.8581
313 K, 101.33 kPa, x1 = 0.5004	0.9873
313 K, 101.33 kPa, x1 = 0.6012	1.194
313 K, 101.33 kPa, x1 = 0.6985	1.49
313 K, 101.33 kPa, x1 = 0.8	1.852
313 K, 101.33 kPa, x1 = 0.8982	2.274
313.15 K, 100 kPa, x2 = 0.0814	2.463
313.15 K, 100 kPa, x2 = 0.1623	2.077
313.15 K, 100 kPa, x2 = 0.2401	1.772
313.15 K, 100 kPa, x2 = 0.3536	1.428
313.15 K, 100 kPa, x2 = 0.4411	1.201
313.15 K, 100 kPa, x2 = 0.5516	0.954
313.15 K, 100 kPa, x2 = 0.6465	0.789
313.15 K, 100 kPa, x2 = 0.7441	0.661
313.15 K, 100 kPa, x2 = 0.8425	0.581
313.15 K, 100 kPa, x2 = 0.9324	0.525
323 K, 101.33 kPa, x1 = 0.1001	0.4717
323 K, 101.33 kPa, x1 = 0.2002	0.53
323 K, 101.33 kPa, x1 = 0.3	0.613
323 K, 101.33 kPa, x1 = 0.4002	0.7007
323 K, 101.33 kPa, x1 = 0.5004	0.8259
323 K, 101.33 kPa, x1 = 0.6012	0.9863
323 K, 101.33 kPa, x1 = 0.6985	1.209
323 K, 101.33 kPa, x1 = 0.8	1.467
323 K, 101.33 kPa, x1 = 0.8982	1.768
323.15 K, 100 kPa, x2 = 0.0814	1.934
323.15 K, 100 kPa, x2 = 0.1623	1.654
323.15 K, 100 kPa, x2 = 0.2401	1.411
323.15 K, 100 kPa, x2 = 0.3536	1.135
323.15 K, 100 kPa, x2 = 0.4411	0.962
323.15 K, 100 kPa, x2 = 0.5516	0.781
323.15 K, 100 kPa, x2 = 0.6465	0.656
323.15 K, 100 kPa, x2 = 0.7441	0.568
323.15 K, 100 kPa, x2 = 0.8425	0.5
323.15 K, 100 kPa, x2 = 0.9324	0.458

CCOCC + c1ccccc1
Conditions	viscosity
293.15 K, 101 kPa, x2 = 0.24	0.3 mPa·s
293.15 K, 101 kPa, x2 = 0.49	0.381 mPa·s
293.15 K, 101 kPa, x2 = 0.74	0.482 mPa·s
293.15 K, 101.33 kPa, x1 = 0.2	0.504 mPa·s and 0.504 mPa·s
293.15 K, 101.33 kPa, x1 = 0.4	0.407 mPa·s
293.15 K, 101.33 kPa, x1 = 0.5	0.371 mPa·s and 0.371 mPa·s
293.15 K, 101.33 kPa, x1 = 0.6	0.339 mPa·s
293.15 K, 101.33 kPa, x1 = 0.8	0.289 mPa·s
298.15 K, 101 kPa, x1 = 0.2529	0.438 mPa·s
298.15 K, 101 kPa, x1 = 0.4438	0.362 mPa·s
298.15 K, 101 kPa, x1 = 0.7248	0.282 mPa·s
298.15 K, 101 kPa, x2 = 0.24	0.288 mPa·s
298.15 K, 101 kPa, x2 = 0.275	0.282 mPa·s
298.15 K, 101 kPa, x2 = 0.49	0.366 mPa·s
298.15 K, 101 kPa, x2 = 0.5563	0.362 mPa·s
298.15 K, 101 kPa, x2 = 0.74	0.455 mPa·s
298.15 K, 101 kPa, x2 = 0.7471	0.438 mPa·s
303.15 K, 101 kPa, x2 = 0.24	0.278 mPa·s
303.15 K, 101 kPa, x2 = 0.49	0.346 mPa·s
303.15 K, 101 kPa, x2 = 0.74	0.43 mPa·s
308.15 K, 101 kPa, x2 = 0.49	0.322 mPa·s
308.15 K, 101 kPa, x2 = 0.74	0.408 mPa·s

O=C1CCCCC1 + c1ccccc1
viscosity [mPa·s]
Conditions	298.15 K	303.15 K	308.15 K
101 kPa, x1 = 0.0989	0.674	–	–
101 kPa, x1 = 0.1983	0.731	–	–
101 kPa, x1 = 0.2984	0.8	–	–
101 kPa, x1 = 0.3848	0.865	–	–
101 kPa, x1 = 0.5166	0.856	–	–
101 kPa, x1 = 0.5909	1.086	–	–
101 kPa, x1 = 0.6876	1.37	–	–
101 kPa, x1 = 0.7775	1.481	–	–
101 kPa, x1 = 0.8574	1.534	–	–
101.33 kPa, x1 = 0.1014	0.661	0.616	0.574
101.33 kPa, x1 = 0.1996	0.726	0.676	0.629
101.33 kPa, x1 = 0.3037	0.803	0.747	0.694
101.33 kPa, x1 = 0.4039	0.888	0.824	0.771
101.33 kPa, x1 = 0.502	0.996	0.942	0.85
101.33 kPa, x1 = 0.5997	1.122	1.026	0.945
101.33 kPa, x1 = 0.7018	1.28	1.175	1.084
101.33 kPa, x1 = 0.8023	1.472	1.346	1.236
101.33 kPa, x1 = 0.9237	1.773	1.61	1.472
